# Measurements taken from patent EP1785417A2, “Novel non-psychotropic cannabinoids” (priority 2000, dated 2001).
# Legend:
# [1] = system: transient MCAo in rats; experiment: Transient MCAo evaluated by the staircase test; type: in vivo; conditions: for reduction of infarct volume compared to vehicle: not statistically different
# Description: The materials for this procedure are identical to those from Physiological Example 5, except for the different concentrations of PRS-211,095. The procedural differences are as follows: • Male Sprague Dawley rats, 230-270 gr (Harlan, Israel) were used. The following compounds and their respective concentrations were tested: • Dexanabinol and analogs PRS-211,095 and PRS-211,220 in PEG ethanol cosolvent 50 mg/ml. Dexanabinol, the analogs and their vehicle were diluted in Intralipid® 20% (Pharmacia) prior to drug administration.
# The procedure is essentially as described in Montoya et al. (Montoya, Campbell-Hope, Pemberton and Dunnet, J. Neurosci. Meth. 36:219-228, 1991) Animals were kept under mild food deprivation for 3-5 days, receiving 15-gr. food once a day (between 16:00 and 17:00) and free access to water. Animals were trained prior to the test for 3-5 days according to the protocol of Sharkey et. al. (Sharkey, Crawford, Butcher and Martson, Stroke 27:2282-2286, 1996).
# In brief, the staircase box contains two rows of seven stairs in each. Two 45 mg food pellets were placed on each step. Animals were placed in the box for 15 minutes sessions. At the end of the session the number of eaten (grasped) and displaced pellets was counted and recorded. Animals were tested twice a day, 4 hours apart. The first session was performed between 8-9 AM and second between 12-13 PM. The animals were trained until they grasped (ate) at least 8 pellets from each set of stairs for two consecutive sessions. Up to one week after the end of the successful training session the animals underwent transient MCAo. Transient MCAo was performed in essentially the same manner as described in Physiological example 5 with the following modification at step i: • Two minutes prior to thread removal rats were re-anesthetized and administered IV with Dexanabinol 5mg/kg, analogs PRS-211,220 or PRS-211,095 at 0.5, 2.5, 5 or 10 mg/kg or vehicle 5 ml/kg. One additional group was sham-treated.
# Animals were allowed to recover from the surgery for five days. The mild food deprivation was re-employed during the days following the ischemic insult. They were tested in the staircase box using the above method for 9-12 days. Animals were weighed twice a week during this period.
# At the end of the evaluation period, animals were euthanized with pentobarbitone 100 mg/kg IP. The animals were perfused through the heart with heparinized 4% formaldehyde solution in PBS (pH 7.4). Brains were then removed, and kept in the same solution for at least 24h. Then the brains - from the rostral side of the cortex to the cerebellum- were sunk in 30% sucrose in PBS, cryosectioned (20 µm), dried and stained with thionin for histological evaluation of the brain infarct volume. Eight sections at the levels of: 3.3;+2.8;+1.8; +0.8; -0.4;-1.4; -2.2; and -3.4 from Bregma were measured (Swanson, Rat Brain Atlas, 1992). Sections were captured by a CCD camera (V-tech MP-470) and image analyzed (Scion image 1.62A). Infarct size was determined from the series of the 8 sections by either calculation of the infarct volume (mm3) by summing the series of mean lesion areas of two adjacent sections multiplied by the distance between them or calculation of the mean infarct size as percentage of the contralateral hemisphere size; calculation of the mean of the surviving ipsilateral side as percentage of the contralateral hemisphere size; calculation of the mean ipsilateral side ventricle as percentage of the contralateral hemisphere ventricle.
# • a. The infarct size was compared using ANOVA (analysis of variance) followed by Duncan's post hoc test. • b. […]
# [2] = system: ear edema model in mice; experiment: Ear edema model; type: in vivo; conditions: Mus musculus, Croton oil (CO) as inducer, IP
# Text: (§1) Evaluation of the therapeutic effects of the novel PRS-211 compounds has now been carried out in a series of experimental systems to support the utility of these drugs as neuroprotectants, anti-inflammatory agents and anti-oxidative agents. These effects have been evaluated both in vitro and in vivo, and have been corroborated utilizing the following systems: • (a) Binding to the NMDA receptor linked channel: Non competitive antagonists of NMDA, the primary example of which is the compound MK-801, bind to a site within the NMDA receptor channel thus preventing the activation of the receptor-channel complex and the consequent neurotoxicity. The ability of various compounds to compete with the binding of tritium labeled MK-801 to brain membranes is considered a measure of their potency as NMDA non-competitive antagonists. • (b) Inhibition of prostaglandin production: The inhibitory effect of the new derivatives of Dexanabinol on prostaglandin synthesis is evaluated in macrophage cell cultures following LPS exposure to induce the inflammatory response. These assays are an indication of the anti-inflammatory activity of the individual analogs. • (c) Inhibition of Tumor Necrosis Factor Alpha: Specific aspects of the inflammatory response cascade are mediated by the cytokine TNFα. Inhibition of TNFα production and/or inhibition of TNFα release by the new analogs are assayed in macrophage cell cultures activated with LPS. This serves as another indication of the general anti-inflammatory potential of the novel compounds. • (d) Nitric Oxide Assay: As one aspect of the anti-oxidative potential of the novel analogs they were tested for their ability to inhibit the enzyme nitric oxide synthase (NOS). This assay can also serve as another indication of the anti-inflammatory cascade, as well as the anti-oxidative mechanisms. • (e) Ear Edema model: The anti-inflammatory activity of the new analogs is screened using an ear edema model in mice. This test system utilizes Croton oil or Arachidonic acid as inflammation inducers. The ability of the test compounds to prevent or diminish the inflammatory response to these stimulants is indicative of their systemic anti-inflammatory capability. • (f) Improved clinical outcome after closed head injury in rats: Severe head injury is associated with high mortality and severe neurological impairment. Animals subjected to head trauma in a controlled fashion serve as models in which to test drugs of therapeutic potential. Test compounds can be evaluated both for improved clinical outcome and for reduction of edema induced by closed head injury. The ability of compounds to reduce the severity of neurological symptoms and to reduce brain edema is considered a measure of their potency in reducing brain damage. • (g) Transient Middle cerebral artery occlusion (MCAo): The middle cerebral artery is the cerebral blood vessel most susceptible to stroke in humans. In animals, coagulation, permanent ligation or permanent placement of an occluding thread in the artery produces a permanent focal stroke affecting the MCA territory. Transient ligation or occlusion results in transient focal stroke. Both transient and permanent focal strokes result in varying degrees of edema and infarction in the affected brain regions. The ability of compounds to reduce the volumes of edema and infarction is considered a measure of their potential as anti-stroke treatment. • (h) Optic Nerve Crush: Application of mechanical pressure to the rat optical nerve results in crush injury of the axons, which is accompanied by immediate changes in oxidative metabolism and delayed axonal death and blindness. […]
# [3] = system: Nitric Oxide Synthase (NOS); experiment: Inhibition of nitric oxide synthase (nitrite fluorimetric assay, LPS-stimulated macrophage cultures); type: cell-based; conditions: LPS-stimulated macrophages
# Text: as §1
# [4] = system: TNFα; experiment: Inhibition of TNFα in LPS-stimulated macrophage cell cultures (ELISA); type: cell-based; conditions: LPS-stimulated macrophages
# Text: as §1
Structure (SMILES),"contralateral performance, pellet consumption ([1]; 0.5 mg/kg)","contralateral performance, pellet consumption ([1]; 2.5 mg/kg)","infarct volume, protection ([1]; 2.5 mg/kg, histopathology)","contralateral performance, pellet consumption ([1]; 5 mg/kg)","reduction of infarct volume compared to vehicle ([1]; 5 mg/kg, histopathology)","contralateral performance, pellet consumption ([1]; 10 mg/kg)","Mortality Rate(%) ([1]; Table 4, 0.5 mg/kg IV)","No. Dead Animals ([1]; Table 4, 0.5 mg/kg IV)","Mortality Rate(%) ([1]; Table 4, 2.5 mg/kg IV)","No. Dead Animals ([1]; Table 4, 2.5 mg/kg IV)","Mortality Rate(%) ([1]; Table 4, 5 mg/kg IV)","No. Dead Animals ([1]; Table 4, 5 mg/kg IV)","Mortality Rate(%) ([1]; Table 4, 10 mg/kg IV)","No. Dead Animals ([1]; Table 4, 10 mg/kg IV)",ED50 [2],inhibition at 10 µM [3],inhibition at 10 µM [4],"Mortality Rate(%) ([1]; Table 5, 0.5 mg/kg IV)","No. Dead Animals ([1]; Table 5, 0.5 mg/kg IV)"
"CCCCCCC(C)(C)c1cc(O)c2c(c1)OC(C)(C)[C@H]1CC=C(Cn3ccnc3)C[C@H]21 (single isomer, unassigned) [211,095-000]",moderately improved pellet consumption,moderately improved pellet consumption,No protection,robust improvement,35%,robust improvement,21%,3,30%,3,0%,0,9%,1,29 µmol/kg,14%,11%,–,–
"CCCCCCC(C)(C)c1cc(O)c2c(c1)OC(C)(C)[C@H]1CC=C(CO)C[C@H]21 [211,007-000 HU-211, 1,1 dimethyl heptyl-(3 S,4S)-7-hydroxy-Δ^6-tetrahydrocannabinol, reference compound]",No improvement,–,–,–,35%,–,–,–,–,–,0%,0,–,–,25 µmol/kg,20%,33%,36%,4
